The record followed here is patent US11679123B2, “N-acylated hyaluronic acid for hyperuricemia and gouty arthritis” (Queen's University at Kingston, priority 2018, dated 2023).

In one experiment the test system is xanthine oxidase (XO). The experiment can be described thus: XO levels in serum and liver of hyperuricemic mice. The class given is in vivo, Balb/C mice. To be noted: AL 20 mg/kg; P<0.05. As to the method: (§1) Due to the presence of uricase in mice, a hyperuricemic mouse model was established by using uricase inhibitor and large amounts of purine. Mice were randomly divided into five groups (n=10), including the control group (NC), model group (MC), 20 mg/kg of AL (Shimao Tianjie Pharmaceutical Co. Ltd, Jiangsu, China) group, 10 μg BHA group (10BHA) and 50 μg BHA group (50BHA). Oral administration of AL and intraperitoneal injection of BHA were administered according to the required dose, and all mice were gavage fed 20 g/kg yeast extract powder 12 h prior to the administration of AL and BHA except for NC mice for 8 days. From the 6th to 8th day, 1-h prior to AL and BHA administration, 300 mg/kg of OXO (Sigma, USA) was intraperitoneally injected to all of the mice except those in the control group. At 1 h after the final drug administration, blood was sampled from caudal veins of the mice, serum was separated and their livers were quickly collected (FIG. 3A, E). All samples were stored at −80° C. until assay measurements were performed.
(§2) The serum UA concentrations and XO levels in the serum and liver were determined with a standard diagnostic kit (MAK077, MAK078 Sigma, USA) according to the manufacturer's instructions.

The test system of experiment [1] is creatinine (Cr) and blood urea nitrogen (BUN). Put plainly: Cr and urea nitrogen in serum and liver of hyperuricemic mice (renal function). It is filed as in vivo, Balb/C mice. Particulars: AL. Here is the method: as §1
(§3) The levels of reactive oxygen species (ROS, 43355), malondialdehyde (MDA, 43124) glutathione peroxidase (GSH-Px, 43390), superoxide dismutase (SOD, 43125), catalase (CAT, 43356), creatinine (Cr, 43353) and blood urea nitrogen (BUN, 43352) in the serum and livers of mice were determined using ELISA Kits (Yuanye Bio-Technology Co. Ltd, Shanghai, China) according to the manufacturer's instructions.

The subject of another experiment is hyperuricemic mice. Put plainly: Serum UA in OXO- and yeast extract-induced hyperuricemic mice. The class given is in vivo, Balb/C mice. To be noted: 20 mg/kg AL oral, P<0.01. Here is the method:
Male Balb/C mice (n=50, 8 weeks: 18-22 g), purchased from Yisi Experimental Animal Technology Company Ltd, Jilin, China (SCXK (Ji)-2016-0003). These mice were housed in plastic cages and maintained on a 12-h light/12-h dark cycle (lights on 7:00-19:00 h) under standard laboratory conditions of 55% relative humidity and 23±1° C. They were given standard feed and tap water ad libitum. All experimental procedures were approved by the Animal Ethics Committee of Jilin University (Reference NO. 201605).
Due to the presence of uricase in mice, a hyperuricemic mouse model was established by using uricase inhibitor and large amounts of purine. Mice were randomly divided into five groups (n=10), including the control group (NC), model group (MC), 20 mg/kg of AL (Shimao Tianjie Pharmaceutical Co. Ltd, Jiangsu, China) group, 10 μg BHA group (10BHA) and 50 μg BHA group (50BHA). Oral administration of AL and intraperitoneal injection of BHA were administered according to the required dose, and all mice were gavage fed 20 g/kg yeast extract powder 12 h prior to the administration of AL and BHA except for NC mice for 8 days. […]
as §2

Experiment [2] has as its system factors related to oxidative stress. Put plainly: Factors related to oxidative stress in serum and liver of hyperuricemia mice (ELISA). The class given is in vivo, Balb/C mice. As to the method:
as §1, §3
(In an ELISA, binding on a coated surface is turned into a signal by an enzyme label.)

In experiment [3] the test system is rats with MSU-induced gouty arthritis. Put plainly: Dose screening on MSU crystals-induced acute gout in rats: ankle swelling ratio. The class given is in vivo, Wistar rats. To be noted: n=6, COL 0.3 mg/kg, at 4 h only, P<0.05. As to the method:
48 male Wistar rats (8 weeks: 180-200 g), purchased from Yisi Experimental Animal Technology Company Ltd, Jilin, China (SCXK (Ji)-2016-0003), were housed in plastic cages and maintained on a 12-h light/12-h dark cycle (lights on 7:00-19:00 h) under standard laboratory conditions of 55% relative humidity and 23° C.±1° C. They were given standard chow and tap water ad libitum. All experimental procedures were approved by the Animal Ethics Committee of Jilin University (Reference NO. 201605).
An experimental model of MSU-induced gouty arthritis was used in order to evaluate the anti-inflammatory activities of BHA similar as previous studies with some modifications. Rats were randomly divided into eight groups (n=6), including control group (NC), model group (MC), 0.3 mg/kg colchicine group (COL), 5 μg BHA group (5BHA), 10 μg BHA group (10BHA), 25 μg BHA group (25BHA), 50 μg BHA group (50BHA), 100 μg BHA group (100BHA). MSU crystals were suspended in 0.9% sterile saline (30 mg/mL) prior to use. Rats in the colchicine group were orally administered colchicine (0.3 mg/kg) for 8 days. At day 6, MSU solution (100 μL of 30 mg/mL) was intra-articular injected at the right ankles of all rats except the NC group m which were injected with saline solution. 5BHA, 10BHA, 25BHA, 50BHA and 100BHA groups received intra-articular injections of 5, 10, 25, 50, or 100 μg BHA along with MSU solution (100 μL of 30 mg/mL MSU solution contains 5, 10, 25, 50 or 100 μg BHA) were administered according to the stated BHA doses.
The right ankle circumference of all rats at 0, 4, 12, 24 and 48 h after MSU injection was measured. The swelling ratio (%) was used for evaluating the gouty arthritis and calculated according to the change of the circumference following the formula: Swelling ratio (%)=(Ct−C0)/C0. Wherein, Ct represented the circumference at t hour and C0 represented the circumference at 0 hour.

For experiment [4], the system named is rats with MSU-induced acute gout. Put plainly: MSU crystal-induced acute gout in rats: ankle swelling ratio. The class given is in vivo, Wistar rats. To be noted: COL 0.3 mg/kg; at 12 h; P<0.05. As to the method:
Male Wistar rats (n=50, 8 weeks: 160-200 g) were purchased from Liaoning Changsheng Biotechnology Company Ltd, Jilin, China (SCXK (Liao)-2015-0001). These rats were housed in plastic cages and maintained on a 12-h light/12-h dark cycle (lights on 7:00-19:00 h) under standard laboratory conditions of 55% relative humidity and at 23° C.±1° C. They were given standard chow (Liaoning Changsheng Biotechnology Company Ltd, Jilin, China) and tap water ad libitum. All experimental procedures were approved by the Animal Ethics Committee of Jilin University (Reference NO. 201605).
(§4) An experimental model of MSU-induced gouty arthritis was used in order to evaluate the anti-inflammatory activities of BHA. Rats were randomly divided into five groups (n=10), include a control group (NC), a model group (MC), a 0.3 mg/kg colchicine group (COL), a 10 μg BHA group (10BHA) and a 50 μg BHA group (50BHA). MSU crystals were suspended in 0.9% sterile saline (30 mg/mL) prior to use. The colchicine group rats were orally administrated colchicine (0.3 mg/kg) for 8 days, and all rats except for the control group were injected with 3 mg of MSU (Sigma, USA) at the 6th day into the right ankle synovial space 1 h after gavage feeding. Meanwhile a turbid sample of MSU mixed with 100 μg of BHA or 500 μg of BHA per mL of solution for 10BHA rats or 50BHA rats. At the 8th day, 1 h after the administration of the final agents, blood was sampled from the caudal veins of the rats and the right ankle joints of the rats were collected and fixed in 4% paraformaldehyde. Serum was separated and stored at −80° C. prior to analysis (FIG. 2A, E).
The right ankle circumferences of all rats at 0, 4, 12, 24 and 48 h after MSU injection were measured. The swelling ratio (%) was used to evaluate the gouty arthritis and calculated according to the change of the circumference via the formula: Swelling ratio (%)=(Ct−C0)/C0, wherein, Ct represented the circumference at time t (in h) and C0 represented the circumference at 0 h.

The test system of experiment [5] is inflammatory cell infiltration in the synovium. Put plainly: Histopathological assessment of ankle joint synovium (H&E) in MSU crystal-injected rats. The class given is in vivo, Wistar rats. To be noted: COL 0.3 mg/kg; MSU crystal-injected rats; H&E. As to the method:
In one study, a histopathological assessment was conducted of synovium in ankle joints of rats after H&E staining. The right ankles of […] were excised and fixed in 4% paraformaldehyde, and subsequently decalcified using 10% ethylenediaminetetraacetic acid. They were then dehydrated via processing in alcohol/xylene mixtures with different proportions and concentrations. The histological sections were stained with hematoxylin and eosin. The histopathological changes of the joint synovium were assessed for the degree of inflammatory cell infiltrate, by an experienced histopathologist. Microscopy at magnifications of 40×, 100×, 200× and 400× were investigated for typical areas for each of the five groups.
The right ankles of rats were collected and fixed in 4% paraformaldehyde, and subsequently decalcified using 10% ethylenediaminetetraacetic acid. They were then dehydrated by processing in alcohol/xylene mixtures with different proportions and concentrations. The histological sections were later stained with hematoxylin and eosin for observation under an optical microscope (200×). The histopathological changes were analyzed with regard to deformaties of the joint synovium and infiltration by inflammatory cells into the ankle.

The next experiment concerns inflammation factors. Put plainly: Serum inflammation factors by ELISA in rats with MSU-induced acute gout. The class given is in vivo, Wistar rats. Here is the method: as §4
The serum levels of interleukin-1α (IL-1α, 41734), IL-1β (43360), interleukin-6 (IL-6, 41731), interleukin-8 (IL-8, 41716), IL-10 (41736), interleukin-16 (IL-16, 41628), C—X—C motif chemokine 10 (CXCL10, 41570), monocyte chemoattractant protein 1 (MCP-1, 41640), macrophage inflammatory protein 1α (MIP-1α, 41645), interferon gamma (IFN-γ, 41739), TNF-α (41721), tumor necrosis factor-β (TNF-β, 41673), nuclear factor κ-light-chain-enhancer of activated B cells (NF-κB, 43358), 6-keto-prostaglandin F-1α (6-Keto-PGF1α, 41809) and prostaglandin E2 (PGE2, 41609) in rats were determined by the ELISA method using related Elisa Kits (Yuanye Bio-Technology Co. Ltd, Shanghai, China) according to the manufacturer's instructions.

The mark [6] stands for this setting: hyperuricemia mice, AL 20 mg/kg oral, mean ± S.D., n=10.
[7] abbreviates: serum, MSU-induced acute gout rats, COL 0.3 mg/kg oral 8 days, mean ± S.D., n=10.

Regarding `Oc1ncnc2[nH]ncc12` [AL, allopurinol, reference compound], the “reduction of XO levels in the serum compared to untreated mice” value in the experiment on xanthine oxidase (XO) worked out at 23.76%. Moreover, the “lowering of Cr in the liver” value in experiment [1] (P<0.01) is on record as 15.28%. In addition, in experiment [1] (hyperuricemic mice, P<0.05), the “lowering of Cr in the serum” value was determined as 11.52% and the “lowering of urea nitrogen in the liver” value is given as 25.25%. For the same compound, in the experiment with hyperuricemic mice, the “suppression of serum UA level” value is 46.38%. Also, in experiment [2] (AL, hyperuricemic mice, P<0.05), the “suppression of MDA level in the liver” value is on record as 13.47%, the “suppression of MDA level in the serum” value amounted to 6.66%, the “suppression of ROS level in the liver” value came out at 17.86% and the “suppression of ROS level in the serum” value was 9.48%. Moreover, in experiment [2] (setting [6]), the “Liver CAT” value stood at 12.9 ± 1.3 U/mg, the “Liver GSH-PX” value was found to be 66.1 ± 7.2 U/mg, the “Liver MDA” value worked out at 3.1 ± 0.2 nmol/mg and the “Liver ROS” value amounted to 63.2 ± 6.2 U/mg. Besides, in experiment [2] (setting [6]), the “Liver SOD” value was determined as 48.5 ± 3.4 U/mg, the “Serum CAT” value is given as 41.6 ± 5.6 U/mL, the “Serum GSH-PX” value turned out to be 231.8 ± 7.7 U/mL and the “Serum MDA” value is on record as 10.2 ± 0.5 nmol/mL. In experiment [2] (setting [6]), the “Serum ROS” value came to 240.9 ± 23.9 U/mL and the “Serum SOD” value is given as 159.2 ± 8 U/mL.

For the compound `COc1cc2c(c(OC)c1OC)-c1ccc(OC)c(=O)cc1[C@@H](NC(C)=O)CC2` [COL, colchicine, reference compound], the “swelling of the ankle compared to MSU treated group” value in experiment [3] is reported as “significantly suppressed swelling of the ankle”. In addition, the “ankle swelling compared to the MSU treated group” value in experiment [4] was “suppressed ankle swelling”. Besides, the “pathological changes (inflammatory cell infiltration) in synovium” value in experiment [5] was “partially prevented the pathological changes”. In addition, the “decrease of serum MCP-1 compared to rats injected with MSU” value with inflammation factors (COL 0.3 mg/kg, P<0.05) is given as 9.93%. Moreover, in the experiment with inflammation factors (setting [7]), the 6-Keto-PGF1α is recorded as 266.3 ± 12.7, the IFN-γ came out at 88.2 ± 35 pg/mL, the IL-1α turned out to be 74.3 ± 12.6 pg/mL and the IL-1β was 19.1 ± 1.2 pg/mL. Also, in the experiment on inflammation factors (setting [7]), the IL-6 is 74.7 ± 7.9 pg/mL, the IL-8 is 222.7 ± 11.5 pg/mL, the IL-10 was determined as 11.5 ± 0.7 pg/mL and the IL-16 is reported as 416.7 ± 16.1 pg/mL. In addition, in the experiment on inflammation factors (setting [7]), the IP-10 is reported as 153.5 ± 20.3 pg/mL, the MCP-1 was 311.5 ± 20.8 pg/mL, the MIP-1α worked out at 294.6 ± 21.5 pg/mL and the NF-κB stood at 494.6 ± 132. pg/mL. Also, in the experiment with inflammation factors (setting [7]), the PGE2 is 207.7 ± 10^ pg/mL, the TNF-α is on record as 154.8 ± 8.5 pg/mL and the TNF-β came to 124.8 ± 10.5 pg/mL.
